The nature of data set [1]: Water sorption and solubility (ISO 4049). Format: physicochemical. Conditions: for water sorption: one week in water. How it is done:
The same samples used in the polymerization kinetics test were stored dry at room temperature for 24 hs, then used for the water sorption (WS) and solubility (SL) test, according to ISO 4049 (REF). The initial mass (M1) was recorded and the volume calculated following the equation: V=h×πr^2 where h (mm) is the sample height and r (mm) is the sample radius.
Each sample was placed in a tight-close glass vial with 5 glass beads on the bottom to ensure the whole surface of the sample was exposed to water, and then the vial was filled by 5 ml of double-distilled water and kept closed for one week. The samples were then removed from water, patted dry and weighed again (M2) and placed in a desiccator until mass stabilization (M3) was observed. Water sorption (WS) and solubility (SL) were calculated according to the equations:
[formula] and the results were converted into […], where V is the volume of the specimen. Dentin Microtensile Bond Strength
The same samples used in the polymerization kinetics were tested for water sorption and solubility, according to [25]. Briefly, the mass of the disks was determined before (m1) and after immersion in distilled water for one week (m2). The disks were then stored in a desiccator until the mass stabilized (m3), which took around one week. Water sorption (WS) and solubility (SL) were calculated using the following equations:
[formula] where V is the volume of the specimen. 2.4 Microtensile bond strength

Data set [2] in a line: Neat monomer incubation in water, remaining monomer by HPLC. The following applies: neat compound incubated in water.
Experimental: (§1) Monomers were prepared to a concentration of 0.15 mM for water and CE/PCE incubations and incubated at 72 hours at 37° C.
(§2) Degradation from CE and PCE was monitored via high performance liquid chromatography (HPLC) and measured via initial and post incubation monomer area difference.
(§3) This was calculated in the decrease in absorbance area measured by HPLC at 227 nm wavelength. Degradation was further verified by the detection of methacrylic acid.
The subject of data set [3] is cholinesterase (CE) and pseudocholinesterase (PCE). The experiment in a line: Neat monomer incubation with cholinesterase / pseudocholinesterase, HPLC. The following applies: neat compound in the presence of cholinesterase.
Experimental: as §1, §2, §3
For data set [4] the following is noted: at 30° C. and 1 Hz; cited from earlier work.
The target in data set [5] is T1, matrix metalloproteinase 2 (MMP-2) (Homo sapiens, UniProt P08253).
T1 sequence (P08253 110-660): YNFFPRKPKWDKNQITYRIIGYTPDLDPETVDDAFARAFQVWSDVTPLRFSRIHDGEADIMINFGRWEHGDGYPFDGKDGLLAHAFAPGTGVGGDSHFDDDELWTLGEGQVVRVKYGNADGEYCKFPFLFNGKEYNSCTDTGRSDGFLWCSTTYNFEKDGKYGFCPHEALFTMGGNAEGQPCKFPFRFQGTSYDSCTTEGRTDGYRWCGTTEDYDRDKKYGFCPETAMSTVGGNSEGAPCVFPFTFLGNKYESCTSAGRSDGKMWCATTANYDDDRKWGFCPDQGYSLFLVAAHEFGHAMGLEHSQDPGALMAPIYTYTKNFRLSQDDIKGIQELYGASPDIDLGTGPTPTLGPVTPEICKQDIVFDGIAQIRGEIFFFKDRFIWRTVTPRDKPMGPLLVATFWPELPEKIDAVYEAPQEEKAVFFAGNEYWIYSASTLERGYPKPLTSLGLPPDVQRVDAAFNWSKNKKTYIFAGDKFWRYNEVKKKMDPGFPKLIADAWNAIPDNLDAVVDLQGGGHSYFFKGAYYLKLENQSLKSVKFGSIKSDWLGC
Briefly: MMP-2 incubation, fluorometric assay. Format: biochemical. The following applies: 0.02 mM monomer, 24 hours at 37° C., fluorescence Ex/Em=490/525 nm. The procedure:
MMP-2 incubation was prepared at 0.02 mM monomer concentration and incubated at 24 hours at 37° C. and degradation from MMP was measured via a fluorometric assay utilizing a plate reader.
BB94 is a commercial, known inhibitor of MMP-2. Plate reader fluorescence was set at Ex/Em=490/525 nm. Lower fluorescence signal indicates enzyme inhibition. Initial study indicate HEMA and HEMAM inhibition of MMP-2.

Data set [6] is described as follows: Monomer degradation in low pH environment (1H NMR). The following applies: neat monomer, 30 days.

Take `C=C(C)C(=O)NC(C)(C)CO` [Monomer 2dMM, N-(1-hydroxy-2-methylpropan-2-yl)methacrylamide]: the water sorption in data set [1] (UDMA mixtures) was determined as 102.7 μg/mm3. Also, the “degradation under aqueous conditions” value in data set [2] is recorded as “virtually no degradation”. Also, the “degraded monomers under enzymatic conditions” value (from here on “degraded monomers”) in data set [3] is 8%.

Turning to `C=C(C)C(=O)OCC(O)COc1ccc(C(C)(C)c2ccc(OCC(O)COC(=O)C(=C)C)cc2)cc1` (stereo not shown) [BisGMA, Bisphenol A glycerolate dimethacrylate], the initial viscosity in data set [4] is reported as 1369 Pa·s.

Consider `C=CC(=O)N(C)CCO` [HEM, N-(2-hydroxyethyl)-N-methylacrylamide], for which the water sorption in data set [1] (BisGMA co-polymerizations) was 38.7 μg/mm3; in data set [1] (UDMA mixtures) it was 203.5 μg/mm3.

In the case of `C=C(C)C(=O)NC(CC)CO` (stereo not shown) [Monomer 2EM, N-(1-hydroxybutan-2-yl)methacrylamide], in data set [1] (UDMA mixtures), the water sorption is 102.7 μg/mm3. The “degradation under aqueous conditions” value in data set [2] is given as “virtually no degradation”. Further, in data set [3], the “degraded monomers” value was determined as 22%.

On to `C=CC(=O)N(C)C` [DMAM, N.N-Dimethylacrylamide], for which the results for the solubility in data set [1] (BisGMA co-polymerization) and in data set [1] (UDMA co-polymerization) were 52.3 μg/mm3 and 44.3 μg/mm3, respectively. In data set [1] (UDMA mixtures), the water sorption was determined as 224.7 μg/mm3.

On to `C=C(C)C(=O)OCCO` [HEMA, 2-Hydroxyethyl methacrylate], for which the water sorption in data set [1] (UDMA mixtures) is recorded as 102.8 μg/mm3. Besides, in data set [5], the “inhibition of MMP-2” value was “inhibition”. Also, the degradation in data set [6] (pH 1, 37° C.) is given as 69.0 (2.3) %; in data set [6] (pH 2, 37° C.), 10.5 (0.7) %. Also, the “degradation under aqueous conditions” value in data set [2] is recorded as 8%. In data set [3], the “degraded monomers” value was 52%.

Turning to `C=C(C)C(=O)OCCOC(=O)NCCC(C)CC(C)(C)CNC(=O)OCCOC(=O)C(=C)C` (stereo not shown) [UDMA, urethane dimethacrylate], the initial viscosity in data set [4] is recorded as 28 Pa·s.

For the compound `C=C(C)C(=O)NCCO` [HEMAM, N-Hydroxyethyl methacrylamide], the “inhibition of MMP-2” value in data set [5] is listed as “inhibition”. In addition, the degradation in data set [6] (pH 1, 37° C.) is 6.0 (0) %; in data set [6] (pH 2, 37° C.) it was “did not show any significant amount of degradation products”.
